Measurements as given in patent US20110046070A1, “GENE EXPRESSION INHIBITOR SELECTIVE FOR MATRIX METALLOPROTEINASE-9 GENE” (priority 2008, published 2011).

Columns and labels:
[1] = system: MMP-9 mRNA in MDA-MB-231 cells; assay: Real-time RT-PCR assay (mRNA expression assay); type: cell-based, human; details: 48 hours, MDA-MB-231, vs DMSO control, normalized to GAPDH
Procedure: MDA-MB-231 cells were treated with each polyamide of the present invention at various concentrations. 48 hours after the treatment, cell fractions were subjected to RNA separation using a TRIzol reagent (Invitrogen Life Technologies, Corp.) according to the manufacturer's manual. RNA was treated with DNase prior to cDNA synthesis. Complementary DNA strands were synthesized by reverse transcription using SuperScript™ First-Strand kit (Invitrogen Life Technologies, Corp.). In real-time RT-PCR (Thermal cycler Dice Real Time system TP800, Takara Bio Inc., Japan), SYBR Premix Ex Taq Kit (Takara Bio Inc.) was used. Primers for HMMP9AP1 (forward, 5′-[…]-3′, SEQ ID NO: 12; reverse 5′-[…]-3′, SEQ ID NO: 13; 236 bp) and internal standard human endogenous glyceraldehyde-3-phosphate dehydrogenase (GADPH; forward, 5′-[…]-3′, SEQ ID NO: 14; reverse, 5′-TGGTGAAGACGCCAGTGGA-3′, SEQ ID NO: 15; 138 bp) were used. Moreover, primers for HMMP9NFKκβ (forward, 5′-[…]-3′, SEQ ID NO: 16; reverse, 5′-[…]-3′, SEQ ID NO: 17; 236 bp) and internal standard human endogenous glyceraldehyde-3-phosphate dehydrogenase (GADPH; forward, 5′-[…]-3′, SEQ ID NO: 18; reverse, 5′-TGGTGAAGACGCCAGTGGA-3′, SEQ ID NO: 19; 138 bp) were used. 25 μl of two-step RT-PCR mixture consists of 12.5 μl of SYBR Premix Ex TAq, 0.5 μl each of forward and reverse primers, 10.5 μl of RNase-free water and 1 μl of template cDNA. The real-time cycle conditions were performed by a reaction system involving 95° C. for 10 seconds, 95° C. for 5 seconds and 60° C. for 30 seconds. The quantification of the MMP-9 gene was normalized by comparison with GAPDH expression.

HeLa cells = assay: Invasion assay into matrigel, HeLa; type: cell-based, human; details: various concentrations
Procedure: Cell invasion assay was conducted using a 24-well cell culture BioCoat matrigel invasion chamber (BD Biosciences, Discovery Labware, Bedford, Mass., USA). MDA-MB-231 cells (1×10^3 cells/well) or HeLa cells (1×10^3 cells/well) were suspended in an RPMI1640 or DMEM medium containing 0.1% FBS and added to the upper chamber. An RPMI1640 or DMEM medium containing 5% FBS was added to the lower chamber. Then, the cells were cultured at 37° C. for 22 hours in a 5% CO2 environment. Noninvasive cells remaining on the membrane were wiped off using a cotton swab. Invasion cells were fixed and stained with a Diff-Quik kit. The number of cells invading the membrane was determined in mean±standard deviation from a total of 3 membranes by counting in 10 fields of view per membrane using an optical microscope (200× magnification).

[2] = system: MMP-9 gelatin degradation activity in culture supernatants of MDA-MB-231 cells; assay: Zymography assay using gelatin as a substrate; type: cell-based, human; details: 48 hours, MDA-MB-231 supernatant; for inhibition at 1 µM: read-out: inhibition of gelatin degradation activity compared with the control
Procedure: Proteins collected from culture supernatants of MDA-MB-231 cells were assayed using Novex (registered trademark) zymogram gelatin gel and XCell SureLock™ Mini-cell (Invitrogen Life Technologies, Corp.). The polyamides of the present invention were separately added at various concentrations to 2.5×10^5 cells. After 48-hour incubation, the supernatants were collected. Proteins from each sample were mixed with Novex (registered trademark) Tris-glycine SDS sample buffer (2×) and separated on a 10% zymogram gelatin gel. The gel was washed with a renaturing buffer and a developing buffer according to the manufacturer's manual. Then, the gel was digitized.

[3] = system: double-stranded DNA of the region from −605 to −599 containing the NFκβ binding site of the human matrix metalloproteinase-9 promoter; assay: Gel shift assay (EMSA), NFκβ site oligonucleotide; details: 10 μM polyamide, 0.6 μM fluorescently labeled double-stranded DNA, 37° C., 1 hour
Procedure: Oligonucleotides were synthesized and annealed to form 2 kinds of double-stranded oligonucleotides corresponding to the promoter base pairs against HMMP9AP1 and HMMP9NFκβ. One single-stranded oligonucleotide was labeled with FITC and hybridized with another single-stranded oligonucleotide as a complementary sequence to prepare double-stranded DNA. Specifically, nucleotides having the following nucleotide sequences were prepared: HMMP9AP1 (match) sense primer (5′[…]) (SEQ ID NO: 8) corresponding to the region from −77 to −70 containing the AP-1 binding site; this sequence plus 2-base mutation, i.e., HMMP9AP1 oligo DNA (mismatch 1) sense primer (5′[…]) (SEQ ID NO: 9); HMMP9NFκβ (match) sense primer (5′[…]) (SEQ ID NO: 10) containing the region from −605 to −599 containing the NFκβ binding site; this sequence plus 2-base mutation, i.e., HMMP9NFκβ (mismatch 1) sense primer (5′[…]) (SEQ ID NO: 11); and antisense primers respectively complementary to these 4 primers. […] The obtained complexes were electrophoresed on a 20% polyacrylamide gel, and the mobilities of the fluorescently labeled double-stranded oligonucleotides were analyzed with a fluorescent image analyzer (FUJIFILM, LAS-4000, Tokyo, Japan). […]

binding to target double-stranded DNA (mobility versus lanes containing only DS) [3]	SMILES	decrease of the expression level of MMP-9 mRNA ([1]; 0.3 μM)	decrease of the expression level of MMP-9 mRNA ([1]; 1 μM)	decrease of the expression level of MMP-9 mRNA ([1]; 3 μM)	decrease of the expression level of MMP-9 mRNA ([1]; 10 μM)	invasion of HeLa cells into matrigel (HeLa cells)	inhibition of gelatin degradation activity (enzymatic activity of MMP-9) ([2]; 10 μM)	inhibition at 1 µM ([2]; Homo sapiens)	inhibition at 10 µM ([2]; Homo sapiens, 10 μM, read-out: inhibition of gelatin degradation activity (enzymatic activity of MMP-9))
	CC(=O)Nc1cn(C)c(C(=O)Nc2cc(C(=O)NCCC(=O)Nc3cn(C)c(C(=O)Nc4cc(C(=O)Nc5cc(C(=O)NCCCC(=O)Nc6cn(C)c(C(=O)Nc7cn(C)c(C(=O)Nc8cc(C(=O)NCCC(=O)Nc9cn(C)c(C(=O)Nc%10cc(C(=O)NCCC(=O)NCCCN(C)C)n(C)c%10)n9)n(C)c8)n7)n6)n(C)c5)n(C)c4)n3)n(C)c2)n1 [HMMP9AP1]	84%	54%	38%	26%	inhibited the invasion activities	almost completely	50%	
lower mobility	CC(=O)Nc1cc(C(=O)Nc2cc(C(=O)NCCC(=O)Nc3cc(C(=O)Nc4cc(C(=O)NCCCC(=O)Nc5cn(C)c(C(=O)Nc6cn(C)c(C(=O)NCCC(=O)Nc7cc(C(=O)Nc8cc(C(=O)NCCC(=O)NCCCN(C)C)n(C)c8)n(C)c7)n6)n5)n(C)c4)n(C)c3)n(C)c2)n(C)c1 [HMMP9NFκβ]	86%	68%	40%	28%	invasion into matrigel decreases in an HMMP9NFκβ concentration-dependent manner		62%	82%
